Data from patent publication US20250248993A1, “CAMPTOTHECIN DERIVATIVES THAT BIND TO DDX5 PROTEIN AND PRODRUGS THEREOF” (priority 2022, published 2025).
Read-outs that look alike come from different tables or passages of the source.

Key:
[1] = test system: FaDu cell line; experiment: Cell viability assay (CellTiter-Glo), FaDu cell line; type: cell-based; settings: FaDu not expressing ABCG2, 3 days
Protocol: After 24 hours, the cells were treated with 100 μL of each drug at nine different concentrations (⅕ serial dilutions from 1000 nM). […] Here, a control (drug concentration: 0) that was not treated with a drug was also prepared. The cells were cultured (37° C., 5% CO2) for 3 or 6 days. 100 μL of the CellTiter-Glo reagent (using the CellTiter-Glo® Luminescent Cell Viability Assay kit (Promega, G7571)) was added to each well and pipetted. After incubating at room temperature (RT) for 10 minutes, luminescence was measured.

[2] = test system: various cancer lines; settings: cited from earlier work
[3] = test system: survivin, cIAP2, Mcl-1, and XIAP; experiment: Western blot, expression inhibition of anti-apoptotic proteins in FaDu cell line; type: cell-based; settings: FaDu, 0, 10, 100 nM, 24 hours
[4] = molecular target: DDX5 (Homo sapiens, UniProt P17844); experiment: Western blot, DDX5 degradation in FaDu and A549 cell lines; type: cell-based; set-up: endogenous in cells; host or cells: FaDu, A549; settings: FaDu and A549, 0, 10, 100 nM
[5] = Lactone to carboxylate form conversion at pH 7.4; type: physicochemical; settings: pH 7.4, 37° C.
Protocol: Subsequently, it was centrifuged under conditions of 4° C., 2 minutes, and 13000 RCF, and a supernatant was used as a sample.
The column used was a Cortecs C18 2.7 μm, 4.6×50 mm column, and analysis was conducted under the following conditions: 1) 20 min: 5% B, 2) sample injection, 3) 2 min: 5% B, 4) 10 min: 5% B→50% B, and 5) 1 min: 50% B.
To measure changes over time, a sample chamber was maintained at 37° C. and a sample was set to be injected at each measurement time. The measurement time was set to 0, 20, 40, 60, 90, 120, 180, 240, 300, 360, 480, 600, and 720 minutes.
The content of each of lactone and carboxylate was calculated from the peak area thereof. Since the absorption coefficients of lactone and carboxylate are different, the lactone area was obtained by multiplying the carboxylate area by the equation below.

[6] = in vivo; settings: NOD SCID, mouse, 1 mg/kg, Plasma Concentration
[7] = mouse, in vivo
[8] = dose more than 10 times higher than a clinically applicable dose; cited from earlier work

Chain of DDX5 (P17844 whole entry): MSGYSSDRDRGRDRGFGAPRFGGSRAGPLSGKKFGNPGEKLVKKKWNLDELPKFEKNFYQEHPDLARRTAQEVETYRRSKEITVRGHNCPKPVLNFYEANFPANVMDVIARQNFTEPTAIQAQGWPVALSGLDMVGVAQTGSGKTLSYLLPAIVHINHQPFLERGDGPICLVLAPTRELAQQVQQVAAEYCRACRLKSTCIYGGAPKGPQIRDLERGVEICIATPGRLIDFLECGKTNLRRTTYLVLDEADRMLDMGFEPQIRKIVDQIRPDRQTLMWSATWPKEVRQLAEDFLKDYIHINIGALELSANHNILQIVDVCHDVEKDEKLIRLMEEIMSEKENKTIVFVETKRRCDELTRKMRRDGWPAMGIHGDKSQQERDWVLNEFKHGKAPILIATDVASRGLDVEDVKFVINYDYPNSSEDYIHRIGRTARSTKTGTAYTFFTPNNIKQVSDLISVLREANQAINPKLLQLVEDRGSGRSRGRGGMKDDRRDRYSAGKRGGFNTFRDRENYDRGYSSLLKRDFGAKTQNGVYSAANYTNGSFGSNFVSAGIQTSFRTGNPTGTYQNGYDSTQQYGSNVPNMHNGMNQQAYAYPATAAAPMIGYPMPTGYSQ

CC[C@@]1(O)C(=O)OCc2c1cc1n(c2=O)Cc2c-1nc1cc3c(c4c1c2[C@@H](NC(=O)[C@@H](O)C1CC1)CC4)OCO3 [PBX-7024]
apoptotic efficacy (cell viability) [1]: potent apoptotic efficacy

CC[C@@]1(O)C(=O)OCc2c1cc1n(c2=O)Cc2c-1nc1cc(F)c(C)c3c1c2[C@@H](NC(=O)CO)CC3 [Dxd]
cytotoxicity / activity relative to SN-38 [2]: approximately 10 times

CC[C@@]1(O)C(=O)OCc2c1cc1n(c2=O)Cc2c-1nc1cc3c(c4c1c2[C@@H](NC(=O)CO)CC4)OCO3 [PBX-7014]
expression of anti-apoptotic proteins (survivin, cIAP2, Mcl-1, XIAP) [3]: decreased as the concentration increased

CC[C@@]1(O)C(=O)OCc2c1cc1n(c2=O)Cc2c-1nc1cc3c(c4c1c2[C@@H](N)CC4)OCO3 (single isomer, unassigned) [PBX-7011]
expression of anti-apoptotic proteins (survivin, cIAP2, Mcl-1, XIAP) [3]: decreased as the concentration increased

CC[C@@]1(O)C(=O)OCc2c1cc1n(c2=O)Cc2c-1nc1cc3c(c4c1c2[C@@H](NC(=O)[C@@H](C)O)CC4)OCO3 [PBX-7016]
DDX5 degradation / inhibition [4]: inhibited DDX5 in a concentration-dependent manner
conversion from lactone form to carboxylate form [5]: more rapidly and at a higher rate than other reference compounds
concentration at 0.167 h ([6]; ip, Mean): 164 ng/mL
concentration at 1 h ([6]; ip, Mean): 16.1 ng/mL
concentration at 0.167 h ([6]; ip, individual mice): 158 ng/mL
concentration at 0.167 h ([6]; iv, Mean): 59.3 ng/mL
concentration at 1 h ([6]; iv, Mean): 6.9 ng/mL
concentration at 0.167 h ([6]; iv, individual mice): 76.2 ng/mL
clearance from the blood [7]: cleared from the blood very quickly
expression of anti-apoptotic proteins (survivin, cIAP2, Mcl-1, XIAP) [3]: decreased as the concentration increased

CC[C@@]1(O)C(=O)OCc2c1cc1n(c2=O)Cc2cc3cc4c(cc3nc2-1)OCO4 [FL118, reference compound]
DDX5 degradation / inhibition [4]: superior to other substances
expression of anti-apoptotic proteins (survivin, cIAP2, Mcl-1, XIAP) [3]: strongly suppresses the expression of an anti-apoptotic protein
IC50 ([2]; majority of 140 cell lines originating from various cancer types): < 100 nM

CC[C@@]1(O)C(=O)OCc2c1cc1n(c2=O)Cc2c-1nc1cc(F)c(C)c3c1c2[C@@H](N)CC3 [Exatecan, reference compound]
expression of anti-apoptotic proteins (survivin, cIAP2, Mcl-1, XIAP) [3]: strongly inhibit the expression of an anti-apoptotic protein

CC[C@@]1(O)C(=O)OCc2c1cc1n(c2=O)Cc2c-1nc1ccccc1c2CCNC(C)C [CKD-602]
adverse drug reactions [8]: no adverse drug reactions, except an increase in gastric juice secretion

CCc1c2c(nc3ccc(O)cc13)-c1cc3c(c(=O)n1C2)COC(=O)[C@]3(O)CC [SN-38]
IC50 ([2]; several cell lines): nanomolar range
